Reference: US9695133B2, “Quinazolinone-based oncogenic-RAS-selective lethal compounds and their use” (THE TRUSTEES OF COLUMBIA UNIVERSITY IN THE CITY OF NEW YORK, priority 2012, dated 2017)
pEC50: −log10 of the molar value. “And” between values parts separate entries of the source, which are not always exact repeats. Identical values can stand only once. Like-named read-outs stand apart in the source and are kept apart here. One block for each compound: values may come before it.

Legend:
[1] = Mouse liver microsome metabolic stability test; assay type: in vitro ADME; conditions: mouse liver microsome assay
[2] = Water solubility by microplate nephelometer; assay type: physicochemical
Experimental: The water solubility was determined using a microplate nephelometer (NEPHELOstar, BMG labtech, Cary, N.C.).

[3] = Plasma pharmacokinetics after single IV and PO dose; assay type: in vivo, male C57BL6/j mice; conditions: for Plasma Concentration, individual mice / concentration at 0.5 hr / concentration at 1 hr / concentration at 2 hr / concentration at 4 hr / concentration at 8 hr / concentration at 12 hr / Vd: 20 mg/kg; for MRT inf: read-out: MRT(0-∞)
Experimental: Three mice in each group were used for blood collection at each time point. Blood samples (approximately 400 μL) were collected after euthanasia using carbon dioxide inhalation via cardiac puncture pre-dose and 30 minutes, 1 hour, 2 hours, 4 hours, 8 hours and 12 hours post-dose. Blood samples were placed into tubes containing sodium heparin and centrifuged at 8000 rpm for 6 minutes at 4° C. to separate plasma from the blood samples. Following centrifugation, the resulting plasma was transferred to clean tubes and stored frozen at −80° C. until bioanalysis by the Testing Facility.

[4] = tested on: BJeLR cells; assay: RSL testing: growth inhibition (alamar blue) in BJeLR cells; assay type: cell-based; conditions: Homo sapiens, BJeLR
Experimental: Cell viability was determined using alamar blue and percent growth inhibition computed as described previously (Id.).

[5] = male, C57BL6/j, mouse, plasma, IV 20 mg/kg
[6] = male, C57BL6/j, mouse, plasma, PO 20 mg/kg

- solubility ([2]; water, nephelometry): improved solubility
- Plasma Concentration, individual mice ([3]; IV 20 mg/kg, 2 hr): 1016.04 ng/mL and 1054.66 ng/mL
- Plasma Concentration, individual mice ([3]; IV 20 mg/kg, 8 hr): 105.57 ng/mL and 148.67 ng/mL
- Plasma Concentration, individual mice ([3]; PO 20 mg/kg, 1 hr): 1635.86 ng/mL and 1288.53 ng/mL
- Plasma Concentration, individual mice ([3]; PO 20 mg/kg, 4 hr): 642.39 ng/mL and 669.76 ng/mL
- Plasma Concentration, individual mice ([3]; PO 20 mg/kg, 8 hr): 23.99 ng/mL and 28.91 ng/mL
- Plasma Concentration, individual mice ([3]; PO 20 mg/kg, 12 hr): 21.10 ng/mL and 15.06 ng/mL
- concentration at 0.5 hr ([3]; male, C57BL6/j, mouse, plasma, iv, IV 20 mg/kg, 0.5 hr): 3220 ng/mL
- concentration at 1 hr ([3]; male, C57BL6/j, mouse, plasma, iv, IV 20 mg/kg, 1 hr, read-out: Plasma Concentration, Mean): 1240 ng/mL
- concentration at 2 hr ([3]; male, C57BL6/j, mouse, plasma, iv, IV 20 mg/kg, 2 hr, read-out: Plasma Concentration, Mean): 997 ng/mL
- concentration at 2 hr ([3]; male, C57BL6/j, mouse, plasma, iv, IV 20 mg/kg, 2 hr, read-out: Plasma Concentration, individual mice): 920 ng/mL
- concentration at 4 hr ([3]; male, C57BL6/j, mouse, plasma, iv, IV 20 mg/kg, 4 hr, read-out: Plasma Concentration, Mean): 412 ng/mL
- concentration at 8 hr ([3]; male, C57BL6/j, mouse, plasma, iv, IV 20 mg/kg, 8 hr, read-out: Plasma Concentration, Mean): 134 ng/mL
- concentration at 8 hr ([3]; male, C57BL6/j, mouse, plasma, iv, IV 20 mg/kg, 8 hr, read-out: Plasma Concentration, individual mice): 147 ng/mL
- concentration at 12 hr ([3]; male, C57BL6/j, mouse, plasma, iv, IV 20 mg/kg, 12 hr, read-out: Plasma Concentration, Mean): 96.8 ng/mL
- Vd ([3]; male, C57BL6/j, mouse, plasma, iv, plasma, IV 20 mg/kg, read-out: Vz): 9.63 L/kg
- Vd ([3]; male, C57BL6/j, mouse, plasma, iv, plasma, IV 20 mg/kg, read-out: volume of distribution at terminal phase): 9.63 L/kg
- concentration at 0.5 hr ([3]; male, C57BL6/j, mouse, plasma, po, PO 20 mg/kg, 0.5 hr): 286 ng/mL
- concentration at 1 hr ([3]; male, C57BL6/j, mouse, plasma, po, PO 20 mg/kg, 1 hr, read-out: Plasma Concentration, Mean): 1390 ng/mL
- concentration at 1 hr ([3]; male, C57BL6/j, mouse, plasma, po, PO 20 mg/kg, 1 hr, read-out: Plasma Concentration, individual mice): 1240 ng/mL
- concentration at 2 hr ([3]; male, C57BL6/j, mouse, plasma, po, PO 20 mg/kg, 2 hr, read-out: Plasma Concentration, Mean): 935 ng/mL
- concentration at 4 hr ([3]; male, C57BL6/j, mouse, plasma, po, PO 20 mg/kg, 4 hr, read-out: Plasma Concentration, Mean): 696 ng/mL
- concentration at 4 hr ([3]; male, C57BL6/j, mouse, plasma, po, PO 20 mg/kg, 4 hr, read-out: Plasma Concentration, individual mice): 777 ng/mL
- concentration at 8 hr ([3]; male, C57BL6/j, mouse, plasma, po, PO 20 mg/kg, 8 hr, read-out: Plasma Concentration, Mean): 24 ng/mL
- concentration at 8 hr ([3]; male, C57BL6/j, mouse, plasma, po, PO 20 mg/kg, 8 hr, read-out: Plasma Concentration, individual mice): 19.1 ng/mL
- concentration at 12 hr ([3]; male, C57BL6/j, mouse, plasma, po, PO 20 mg/kg, 12 hr, read-out: Plasma Concentration, Mean): 18.8 ng/mL
- concentration at 12 hr ([3]; male, C57BL6/j, mouse, plasma, po, PO 20 mg/kg, 12 hr, read-out: Plasma Concentration, individual mice): 20.2 ng/mL
- bioavailability ([3]; male, C57BL6/j, mouse, plasma, PO 20 mg/kg vs IV 20 mg/kg, read-out: F (bioavailability)): 57.1%
- AUC(0-inf) [3, 5]: 8490 ng·h/mL
- AUC(0-t) [3, 5]: 8100 ng·h/mL
- Cmax [3, 5]: 3220 ng/mL
- Tmax [3, 5]: 30 min
- half-life [3, 5]: 170 min
- MRT inf [3, 5]: 2.67 h
- clearance ([3]; male, C57BL6/j, mouse, plasma, IV 20 mg/kg, read-out: systemic clearance (converted)): 39.2 mL/min/kg
- AUC(0-inf) [3, 6]: 4850 ng·h/mL
- AUC(0-t) [3, 6]: 4810 ng·h/mL
- Cmax [3, 6]: 1390 ng/mL
- Tmax [3, 6]: 60 min
- half-life [3, 6]: 94.2 min
- MRT inf [3, 6]: 2.91 h
- CLz ([3]; plasma, IV 20 mg/kg): 2354.48 mL/h/kg
Structure (SMILES): CC(C)Oc1ccc(CN2CCNCC2)cc1-n1c(CN2CCN(C(=O)COc3ccc(Cl)cc3)CC2)nc2ccccc2c1=O [PE, 2-((4-(2-(4-chlorophenoxy)ethanoyl)piperazin-1-yl)methyl)-3-(2-isopropoxy-5-(piperazin-1-ylmethyl)phenyl)quinazolin-4(3H)-one]
- metabolic stability [1]: improved metabolic stability in comparison to erastin
- Plasma Concentration, individual mice ([3]; IV 20 mg/kg, 0.5 hr): 4625.87 ng/mL and 2218.81 ng/mL and 2826.92 ng/mL
- Plasma Concentration, individual mice ([3]; IV 20 mg/kg, 1 hr): 1548.38 ng/mL and 657.50 ng/mL and 1509.78 ng/mL
- Plasma Concentration, individual mice ([3]; IV 20 mg/kg, 4 hr): 200.14 ng/mL and 657.19 ng/mL and 379.24 ng/mL
- Plasma Concentration, individual mice ([3]; IV 20 mg/kg, 12 hr): 34.53 ng/mL and 159.78 ng/mL and 96.08 ng/mL
- Plasma Concentration, individual mice ([3]; PO 20 mg/kg, 0.5 hr): 365.89 ng/mL and 403.60 ng/mL and 87.63 ng/mL
- Plasma Concentration, individual mice ([3]; PO 20 mg/kg, 2 hr): 1260.55 ng/mL and 527.50 ng/mL and 1016.24 ng/mL

Structure (SMILES): CCOc1ccccc1-n1c(C(C)N2CCN(C(=O)COc3ccc(Cl)cc3)CC2)nc2ccccc2c1=O (centres unmarked) [erastin]
- pEC50 ([4]; read-out: EC50 (BJELR)): 5.74
- pEC50 ([4]; read-out: EC50 (BJeLR)): 5.75
- metabolic stability [1]: metabolic instability
- solubility [2]: poor solubility
